Results reported in patent publication EP4707280A1, “1,4-CINEOLE DERIVATIVE AND INTERMEDIATE THEREOF, HERBICIDE CONTAINING SAID DERIVATIVE AS ACTIVE INGREDIENT, METHOD FOR USING HERBICIDE, AND METHOD FOR PREPARING AGROCHEMICAL COMPOSITION” (HOKKO CHEMICAL INDUSTRY CO., LTD., priority 2023, dated 2024).

Experiments:
Assay type in all cases: in vivo
Digitaria ciliaris [1] = assay: Test Example 4: herbicidal effect test by stem and leaf treatment in upland field; details: Digitaria ciliaris; 120 g per 10 ares; sprayed seven days after sowing, upland soil; 14 days after application; read-out: weed inhibition rate
[2] = test system: Echinochloa crus-galli var. formosensis; assay: Test Example 1: herbicidal effect test by soil application in paddy rice; details: Echinochloa crus-galli, soil, 336 h; 120 g active ingredient per 10 ares; applied immediately after sowing, flooded pots; 14 days after application; read-out: weed inhibition rate
Method in brief: (§1)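 Pre-emergence paddy treatment: diluted emulsifiable concentrate applied by dropper at 120 g a.i./10 ares immediately after sowing. Seeds (30 per species, 0–1 cm deep) in fertilized, puddled paddy soil kept under ~3 cm flood in a glass greenhouse.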

[3] = test system: Echinochloa crus-galli var. formosensis; assay: Test Example 6: herbicidal effect test by application during growth period of paddy rice (low dose); details: Echinochloa crus-galli; 7.5 g per 10 ares; applied seven days after sowing, flooded pots; 14 days after application; read-out: weed inhibition rate
Method in brief: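 Formulated compound, diluted in water, was dropped onto flooded pots seven days post-sowing at 7.5 g a.i. per 10 ares. Seeds had been sown 0-1 cm deep in puddled paddy soil under ~3 cm water in a glass greenhouse. Inhibition (%) assessed at 14 days; duplicate pots.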

[4] = test system: Echinochloa crus-galli var. formosensis; assay: Test Example 5: herbicidal effect test by soil application in paddy rice (low dose); details: Echinochloa crus-galli, soil, 336 h; 7.5 g per 10 ares; applied immediately after sowing, flooded pots; 14 days after application; read-out: weed inhibition rate
Method in brief: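 Pots of puddled, fertilized paddy soil receive 30 seeds per species at 0–1 cm depth and are flooded to about 3 cm. The diluted emulsifiable concentrate is then dropped onto the water, delivering 7.5 g active ingredient per 10 ares. Greenhouse grown; herbicidal effect scored 14 days later, two replicates.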

[5] = test system: Echinochloa crus-galli var. formosensis; assay: Test Example 2: herbicidal effect test by application during growth period of paddy rice; details: Echinochloa crus-galli; 120 g per 10 ares; applied seven days after sowing, flooded pots; 14 days after application; read-out: weed inhibition rate
Method in brief: (§2)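 Weeds sown into puddled, flooded paddy soil received a post-emergence water application of emulsifiable concentrate at 120 g active ingredient per 10 ares, seven days after sowing. Herbicidal effect was rated 14 days later as inhibition (%).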

Echinochloa crus-galli [6] = assay: Test Example 4: herbicidal effect test by stem and leaf treatment in upland field; details: Echinochloa crus-galli; 120 g per 10 ares; sprayed seven days after sowing, upland soil; 14 days after application; read-out: weed inhibition rate
Echinochloa crus-galli [7] = assay: Test Example 7: herbicidal effect test by soil application in upland field (low dose); details: Echinochloa crus-galli, 7.5 g per 10 ares, sprayed one day after sowing, 14 days after application, read-out: weed inhibition rate
Description: (§3) The present test was conducted in duplicate for each chemical concentration group, and the weed inhibition rate (%) was determined 14 days after chemical application using the following formula (Math. 1). [formula]
(§4) Pots with an area of 36 cm^2 were filled with upland soil (alluvial loam), twenty seeds each of weeds of Digitaria ciliaris, and Echinochloa crus-galli were uniformly mixed with the top 1 cm layer of soil and the surface was lightly pressed down. One day after sowing, an emulsifiable concentrate prepared according to Formulation Example 5 using the compound shown below was diluted with water, and the diluted solution was sprayed onto the soil surface at a rate of 100 liters per 10 ares. The amount of the active ingredient to be applied was equivalent to 7.5 g per 10 ares. Fourteen days after chemical application, the herbicidal effect was evaluated according to the same criteria as in Test Example 1.

Digitaria ciliaris [8] = assay: as above; details: Digitaria ciliaris, 7.5 g per 10 ares, sprayed one day after sowing, 14 days after application, read-out: weed inhibition rate
Description: as §3, §4

Echinochloa crus-galli [9] = assay: Test Example 8: herbicidal effect test by stem and leaf treatment in upland field (low dose); details: Echinochloa crus-galli; 7.5 g per 10 ares; sprayed seven days after sowing, upland soil; 14 days after application; read-out: weed inhibition rate
Description: as §3
as §4, with “Seven days” for “One day”

Digitaria ciliaris [10] = assay: as above; details: Digitaria ciliaris; 7.5 g per 10 ares; sprayed seven days after sowing, upland soil; 14 days after application; read-out: weed inhibition rate
Description: as §3
as §4, with “Seven days” for “One day”

Echinochloa crus-galli [11] = assay: Test Example 3: herbicidal effect test by soil application in upland field; details: Echinochloa crus-galli, 120 g per 10 ares, sprayed one day after sowing, 14 days after application, read-out: weed inhibition rate
Method in brief: (§5)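 Weed inhibition (%) was assessed 14 days after treatment, in duplicate per concentration group. Seeds had been mixed into the upper 1 cm of upland alluvial loam, and the soil surface was sprayed one day later with the diluted emulsifiable concentrate at 120 g active ingredient per 10 ares.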

Digitaria ciliaris [12] = assay: as above; details: Digitaria ciliaris, 120 g per 10 ares, sprayed one day after sowing, 14 days after application, read-out: weed inhibition rate
Method in brief: as §5

Scirpus juncoides [13] = assay: Test Example 1: herbicidal effect test by soil application in paddy rice; details: Schoenoplectiella juncoides, soil, 336 h; 120 g active ingredient per 10 ares; applied immediately after sowing, flooded pots; 14 days after application; read-out: weed inhibition rate
Method in brief: as §1

Scirpus juncoides [14] = assay: Test Example 2: herbicidal effect test by application during growth period of paddy rice; details: Schoenoplectiella juncoides; 120 g per 10 ares; applied seven days after sowing, flooded pots; 14 days after application; read-out: weed inhibition rate
Method in brief: as §2

CC(C)C12CC(OCc3c(F)cccc3F)C(C)(CC1Br)O2 (stereo not drawn) [1-1379, 5-bromo-2-[(2,6-difluorophenyl)methoxy]-1-methyl-4-isopropyl-7-oxabicyclo[2.2.1]heptane]
≥ 80%: inhibition at 1200 g/ha (Digitaria ciliaris [1]) | pest or weed control at 1200 g/ha [2] | inhibition at 75 g/ha [3] | inhibition at 75 g/ha [4] | inhibition at 1200 g/ha [5] | inhibition at 1200 g/ha (Echinochloa crus-galli [6]) | inhibition at 75 g/ha (Echinochloa crus-galli [7]) | inhibition at 75 g/ha (Digitaria ciliaris [8]) | inhibition at 75 g/ha (Echinochloa crus-galli [9]) | inhibition at 75 g/ha (Digitaria ciliaris [10]) | inhibition at 1200 g/ha (Echinochloa crus-galli [11]) | inhibition at 1200 g/ha (Digitaria ciliaris [12])

CC(C)C12CC(OCc3c(F)cccc3Cl)C(C)(CC1Br)O2 (stereo not drawn) [1-1381, 5-bromo-2-[(2-chloro-6-fluorophenyl)methoxy]-1-methyl-4-isopropyl-7-oxabicyclo[2.2.1]heptane]
≥ 80%: inhibition at 1200 g/ha (Digitaria ciliaris [1]) | pest or weed control at 1200 g/ha [2] | inhibition at 75 g/ha [3] | inhibition at 75 g/ha [4] | inhibition at 1200 g/ha [5] | inhibition at 1200 g/ha (Echinochloa crus-galli [6]) | inhibition at 75 g/ha (Echinochloa crus-galli [7]) | inhibition at 75 g/ha (Digitaria ciliaris [8]) | inhibition at 75 g/ha (Echinochloa crus-galli [9]) | inhibition at 75 g/ha (Digitaria ciliaris [10]) | inhibition at 1200 g/ha (Echinochloa crus-galli [11]) | inhibition at 1200 g/ha (Digitaria ciliaris [12])

CC(C)C12CC(OCc3ccccc3I)C(C)(CC1I)O2 (stereo not drawn) [1-1430, 2-iodo-5-[(2-iodophenyl)methoxy]-1-isopropyl-4-methyl-7-oxabicyclo[2.2.1]heptane]
≥ 80%: pest or weed control at 1200 g/ha (Scirpus juncoides [13]) | pest or weed control at 1200 g/ha [2] | inhibition at 75 g/ha [3] | inhibition at 75 g/ha [4] | inhibition at 1200 g/ha (Scirpus juncoides [14]) | inhibition at 1200 g/ha [5] | inhibition at 1200 g/ha (Echinochloa crus-galli [6]) | inhibition at 75 g/ha (Echinochloa crus-galli [7]) | inhibition at 75 g/ha (Digitaria ciliaris [8]) | inhibition at 75 g/ha (Echinochloa crus-galli [9]) | inhibition at 75 g/ha (Digitaria ciliaris [10]) | inhibition at 1200 g/ha (Echinochloa crus-galli [11]) | inhibition at 1200 g/ha (Digitaria ciliaris [12])

CC(C)[C@]12C[C@@H](OCc3ccc(F)cc3F)[C@](C)(CC1=O)O2 [2-16, (1R,4S,5R)-5-((2,4-difluorobenzyl)oxy)-1-isopropyl-4-methyl-7-oxabicyclo[2.2.1]heptan-2-one]
≥ 80%: inhibition at 1200 g/ha (Digitaria ciliaris [1]) | pest or weed control at 1200 g/ha (Scirpus juncoides [13]) | pest or weed control at 1200 g/ha [2] | inhibition at 75 g/ha [3] | inhibition at 75 g/ha [4] | inhibition at 1200 g/ha [5] | inhibition at 1200 g/ha (Echinochloa crus-galli [6]) | inhibition at 75 g/ha (Echinochloa crus-galli [7]) | inhibition at 75 g/ha (Digitaria ciliaris [8]) | inhibition at 75 g/ha (Echinochloa crus-galli [9]) | inhibition at 75 g/ha (Digitaria ciliaris [10]) | inhibition at 1200 g/ha (Echinochloa crus-galli [11]) | inhibition at 1200 g/ha (Digitaria ciliaris [12])

Cc1ccccc1COC1CC2(C(C)C)C=CC1(C)O2 (stereo not drawn) [3-753, 4-methyl-5-[(2-methylphenyl)methoxy]-1-isopropyl-7-oxabicyclo[2.2.1]hept-2-ene]
≥ 80%: pest or weed control at 1200 g/ha (Scirpus juncoides [13]) | pest or weed control at 1200 g/ha [2] | inhibition at 75 g/ha [3] | inhibition at 75 g/ha [4] | inhibition at 1200 g/ha (Scirpus juncoides [14]) | inhibition at 1200 g/ha [5] | inhibition at 1200 g/ha (Echinochloa crus-galli [6]) | inhibition at 75 g/ha (Echinochloa crus-galli [7]) | inhibition at 75 g/ha (Digitaria ciliaris [8]) | inhibition at 75 g/ha (Echinochloa crus-galli [9]) | inhibition at 75 g/ha (Digitaria ciliaris [10]) | inhibition at 1200 g/ha (Echinochloa crus-galli [11]) | inhibition at 1200 g/ha (Digitaria ciliaris [12])
